# Experimental data reported in paper PMC6496074, “The Evolution of Azole Resistance in Candida albicans Sterol 14α-Demethylase (CYP51) through Incremental Amino Acid Substitutions” (Antimicrobial Agents and Chemotherapy, 2019).
# Key:
# Experiment in all cases: CYP51 reconstitution assay
# Format in all cases: biochemical
# [1] = molecular target: T1, CaCYP51 Y132F (Candida albicans, UniProt P10613, Y132F); settings: 0.25 h, 4 μM triazole, % of activity without triazole, read-out: Residual CYP51 activity (%) ± SD
# T1 construct: made in house; host or cells: E. coli DH5α (pCWori+)
# Protocol: (§1) Azole antifungal agents were added in 2.5 μl dimethyl sulfoxide, followed by 10 min of incubation at 37°C prior to assay initiation with 4 mM β-NADPH-Na4. The samples were then shaken for 15 min at 37°C. Sterol metabolites were recovered by extraction with ethyl acetate, followed by derivatization with 0.1 ml N,O-bis(trimethylsilyl)trifluoroacetamide (BSTFA)–trimethylchlorosilane (TMCS) (99:1) and 0.3 ml anhydrous pyridine (2 h at 80°C), prior to analysis by gas chromatography-mass spectrometry (GC-MS) ([52]). IC50 determinations were performed in duplicate.
# [2] = molecular target: T2, CaCYP51 S279F (Candida albicans, UniProt P10613, S279F); settings: 0.25 h, 4 μM triazole, % of activity without triazole, read-out: Residual CYP51 activity (%) ± SD
# T2 construct: made in house; host or cells: E. coli DH5α (pCWori+)
# Protocol: as §1
# [3] = molecular target: T3, CaCYP51 G448E (Candida albicans, UniProt P10613, G448E); settings: 0.25 h, 4 μM triazole, % of activity without triazole, read-out: Residual CYP51 activity (%) ± SD
# T3 construct: made in house; host or cells: E. coli DH5α (pCWori+)
# Protocol: as §1
# [4] = molecular target: T4, CaCYP51 D278N+G464S (Candida albicans, UniProt P10613, D278N/G464S); settings: 0.25 h, 4 μM triazole, % of activity without triazole, read-out: Residual CYP51 activity (%) ± SD
# T4 construct: made in house; host or cells: E. coli DH5α (pCWori+)
# Protocol: as §1
# [5] = molecular target: T5, CaCYP51 Y447H (Candida albicans, UniProt P10613, Y447H); settings: 0.25 h, 4 μM triazole, % of activity without triazole, read-out: Residual CYP51 activity (%) ± SD
# T5 construct: made in house; host or cells: E. coli DH5α (pCWori+)
# Protocol: as §1
# [6] = molecular target: T6, CaCYP51 F449Y (Candida albicans, UniProt P10613, F449Y); settings: 0.25 h, 4 μM triazole, % of activity without triazole, read-out: Residual CYP51 activity (%) ± SD
# T6 construct: made in house; host or cells: E. coli DH5α (pCWori+)
# Protocol: as §1
# [7] = molecular target: T7, CaCYP51 S405F (Candida albicans, UniProt P10613, S405F); settings: 0.25 h, 4 μM triazole, % of activity without triazole, read-out: Residual CYP51 activity (%) ± SD
# T7 construct: made in house; host or cells: E. coli DH5α (pCWori+)
# Protocol: as §1
# [8] = molecular target: T8, CaCYP51 Y118A (Candida albicans, UniProt P10613, Y118A); settings: 0.25 h, 4 μM triazole, % of activity without triazole, read-out: Residual CYP51 activity (%) ± SD
# T8 construct: made in house; host or cells: E. coli DH5α (pCWori+)
# Protocol: as §1
# [9] = molecular target: T9, CaCYP51 P230L (Candida albicans, UniProt P10613, P230L); settings: 0.25 h, 4 μM triazole, % of activity without triazole, read-out: Residual CYP51 activity (%) ± SD
# T9 construct: made in house; host or cells: E. coli DH5α (pCWori+)
# Protocol: as §1
# [10] = molecular target: T10, CaCYP51 F145L (Candida albicans, UniProt P10613, F145L); settings: 0.25 h, 4 μM triazole, % of activity without triazole, read-out: Residual CYP51 activity (%) ± SD
# T10 construct: made in house; host or cells: E. coli DH5α (pCWori+)
# Protocol: as §1
# [11] = molecular target: T11, CaCYP51 G464S (Candida albicans, UniProt P10613, G464S); settings: 0.25 h, 4 μM triazole, % of activity without triazole, read-out: Residual CYP51 activity (%) ± SD
# T11 construct: made in house; host or cells: E. coli DH5α (pCWori+)
# Protocol: as §1
# [12] = molecular target: T12, CaCYP51 Wild type (Candida albicans, UniProt P10613); settings: 0.25 h; Wild type; 4 μM triazole; % of activity without triazole; read-out: Residual CYP51 activity (%) ± SD
# T12 construct: made in house; host or cells: E. coli DH5α (pCWori+)
# Protocol: as §1
# [13] = molecular target: T13, CaCYP51 Y132H+K143R (Candida albicans, UniProt P10613, K143R/Y132H); settings: 0.25 h, 4 μM triazole, % of activity without triazole, read-out: Residual CYP51 activity (%) ± SD
# T13 construct: made in house; host or cells: E. coli DH5α (pCWori+)
# Protocol: as §1
# [14] = molecular target: T14, CaCYP51 F126V (Candida albicans, UniProt P10613, F126V); settings: 0.25 h, 4 μM triazole, % of activity without triazole, read-out: Residual CYP51 activity (%) ± SD
# T14 construct: made in house; host or cells: E. coli DH5α (pCWori+)
# Protocol: as §1
# [15] = molecular target: T15, CaCYP51 R467K (Candida albicans, UniProt P10613, R467K); settings: 0.25 h, 4 μM triazole, % of activity without triazole, read-out: Residual CYP51 activity (%) ± SD
# T15 construct: made in house; host or cells: E. coli DH5α (pCWori+)
# Protocol: as §1
# [16] = molecular target: T16, CaCYP51 Y132H (Candida albicans, UniProt P10613, Y132H); settings: 0.25 h, 4 μM triazole, % of activity without triazole, read-out: Residual CYP51 activity (%) ± SD
# T16 construct: made in house; host or cells: E. coli DH5α (pCWori+)
# Protocol: as §1
# [17] = molecular target: T17, CaCYP51 Y257H (Candida albicans, UniProt P10613, Y257H); settings: 0.25 h, 4 μM triazole, % of activity without triazole, read-out: Residual CYP51 activity (%) ± SD
# T17 construct: made in house; host or cells: E. coli DH5α (pCWori+)
# Protocol: as §1
# [18] = molecular target: T18, CaCYP51 G450E (Candida albicans, UniProt P10613, G450E); settings: 0.25 h, 4 μM triazole, % of activity without triazole, read-out: Residual CYP51 activity (%) ± SD
# T18 construct: made in house; host or cells: E. coli DH5α (pCWori+)
# Protocol: as §1
# [19] = molecular target: T19, CaCYP51 D278N (Candida albicans, UniProt P10613, D278N); settings: 0.25 h, 4 μM triazole, % of activity without triazole, read-out: Residual CYP51 activity (%) ± SD
# T19 construct: made in house; host or cells: E. coli DH5α (pCWori+)
# Protocol: as §1
# [20] = molecular target: T20, CaCYP51 Q474K (Candida albicans, UniProt P10613, Q474K); settings: 0.25 h, 4 μM triazole, % of activity without triazole, read-out: Residual CYP51 activity (%) ± SD
# T20 construct: made in house; host or cells: E. coli DH5α (pCWori+)
# Protocol: as §1
# [21] = molecular target: T21, CaCYP51 V456I (Candida albicans, UniProt P10613, V456I); settings: 0.25 h, 4 μM triazole, % of activity without triazole, read-out: Residual CYP51 activity (%) ± SD
# T21 construct: made in house; host or cells: E. coli DH5α (pCWori+)
# Protocol: as §1
# [22] = molecular target: T22, CaCYP51 V488I (Candida albicans, UniProt P10613, V488I); settings: 0.25 h, 4 μM triazole, % of activity without triazole, read-out: Residual CYP51 activity (%) ± SD
# T22 construct: made in house; host or cells: E. coli DH5α (pCWori+)
# Protocol: as §1
# [23] = molecular target: T23, CaCYP51 G307S+G450E (Candida albicans, UniProt P10613, G307S/G450E); settings: 0.25 h, 4 μM triazole, % of activity without triazole, read-out: Residual CYP51 activity (%) ± SD
# T23 construct: made in house; host or cells: E. coli DH5α (pCWori+)
# Protocol: as §1
# [24] = molecular target: T24, CaCYP51 I471T (Candida albicans, UniProt P10613, I471T); settings: 0.25 h, 4 μM triazole, % of activity without triazole, read-out: Residual CYP51 activity (%) ± SD
# T24 construct: made in house; host or cells: E. coli DH5α (pCWori+)
# Protocol: as §1
# [25] = molecular target: T25, CaCYP51 G307S (Candida albicans, UniProt P10613, G307S); settings: 0.25 h, 4 μM triazole, % of activity without triazole, read-out: Residual CYP51 activity (%) ± SD
# T25 construct: made in house; host or cells: E. coli DH5α (pCWori+)
# Protocol: as §1
# [26] = molecular target: T26, CaCYP51 Y132F+K143R (Candida albicans, UniProt P10613, K143R/Y132F); settings: 0.25 h, read-out: Residual CYP51 activity (%) ± SD
# T26 construct: made in house; host or cells: E. coli DH5α (pCWori+)
# Protocol: as §1
# [27] = molecular target: T27, CaCYP51 Y132F+F145L (Candida albicans, UniProt P10613, F145L/Y132F); settings: 0.25 h, read-out: Residual CYP51 activity (%) ± SD
# T27 construct: made in house; host or cells: E. coli DH5α (pCWori+)
# Protocol: as §1
# T1 sequence (P10613 whole entry, looked up, stated change not applied): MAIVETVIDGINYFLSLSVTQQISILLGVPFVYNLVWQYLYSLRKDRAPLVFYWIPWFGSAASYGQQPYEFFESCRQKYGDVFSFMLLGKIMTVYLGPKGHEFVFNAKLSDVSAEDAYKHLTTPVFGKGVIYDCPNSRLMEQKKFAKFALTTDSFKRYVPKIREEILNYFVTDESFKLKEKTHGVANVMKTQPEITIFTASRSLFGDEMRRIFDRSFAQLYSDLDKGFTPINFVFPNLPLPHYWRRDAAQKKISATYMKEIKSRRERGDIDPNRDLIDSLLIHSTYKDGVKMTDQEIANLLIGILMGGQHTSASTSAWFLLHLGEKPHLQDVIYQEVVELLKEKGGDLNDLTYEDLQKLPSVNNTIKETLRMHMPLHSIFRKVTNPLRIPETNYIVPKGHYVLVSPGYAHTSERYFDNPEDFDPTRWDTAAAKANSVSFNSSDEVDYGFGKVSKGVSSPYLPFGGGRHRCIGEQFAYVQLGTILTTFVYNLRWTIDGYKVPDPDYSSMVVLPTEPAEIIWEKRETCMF
# T2 sequence (P10613 whole entry, looked up, stated change not applied): as above
# T15 sequence (P10613 whole entry, looked up, stated change not applied): as above
# T12 sequence (P10613 whole entry, looked up, natural form): as the sequence (P10613 whole entry, looked up, stated change not applied) above
# T24 sequence (P10613 whole entry, looked up, stated change not applied): as above
# T11 sequence (P10613 whole entry, looked up, stated change not applied): as above
# T19 sequence (P10613 whole entry, looked up, stated change not applied): as above
# T17 sequence (P10613 whole entry, looked up, stated change not applied): as above
# T9 sequence (P10613 whole entry, looked up, stated change not applied): as above
structure (smiles),measurement,setting,value
"C[C@@H](c1ncncc1F)[C@](O)(Cn1cncn1)c1ccc(F)cc1F [Voriconazole, voriconazole]",remaining activity at 4 µM,[1],1.09 ± 0.05%
same,remaining activity at 4 µM,[2],6.15 ± 0.66%
same,remaining activity at 4 µM,[3],1.89 ± 0.61%
same,remaining activity at 4 µM,[4],4.79 ± 0.11%
same,remaining activity at 4 µM,[5],2.07 ± 1.04%
same,remaining activity at 4 µM,[6],0.56 ± 0.12%
same,remaining activity at 4 µM,[7],1.94 ± 0.12%
same,remaining activity at 4 µM,[8],0.28 ± 0.04%
same,remaining activity at 4 µM,[9],0.13 ± 0.12%
same,remaining activity at 4 µM,[10],0.37 ± 0.11%
same,remaining activity at 4 µM,[11],0.1 ± 0.01%
same,remaining activity at 4 µM,[12],0.11 ± 0.01%
same,remaining activity at 4 µM,[13],39.6 ± 8.63%
same,remaining activity at 4 µM,[14],0.19 ± 0.06%
same,remaining activity at 4 µM,[15],0.52 ± 0.18%
same,remaining activity at 4 µM,[16],0.33 ± 0.19%
same,remaining activity at 4 µM,[17],0.63 ± 0.27%
same,remaining activity at 4 µM,[18],3.5 ± 0.17%
same,remaining activity at 4 µM,[19],1.34 ± 0.05%
same,remaining activity at 4 µM,[20],0.34 ± 0.04%
same,remaining activity at 4 µM,[21],0.79 ± 0.07%
same,remaining activity at 4 µM,[22],0.13 ± 0.08%
same,remaining activity at 4 µM,[23],0.41 ± 0.1%
same,remaining activity at 4 µM,[24],0.92 ± 0.05%
same,remaining activity at 4 µM,[25],0.41 ± 0.04%
same,remaining activity at 4 µM,[26],8.86 ± 1.09%
same,remaining activity at 4 µM,[27],13.6 ± 0.19%
